Our source for the IC50 values is patent publication US11780839B2, “Compounds for treating Huntington's disease” (PTC THERAPEUTICS, INC., priority 2018, dated 2023).

The structures appear in SMILES notation.

This experiment deals with Endogenous Huntingtin Protein. Kind of experiment: Endogenous Huntingtin Protein Assay (ELISA-based Meso Scale Discovery electrochemiluminescence). Format: cell-based. The settings on record: MSD electrochemiluminescence, Table 1. In outline:
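Huntingtin was captured overnight at 4 °C on plates coated with 1 μg/mL MW1 (polyQ-expanded) or MAB2166 antibody and BSA-blocked. Detection used a rabbit monoclonal and then a SULFO-TAG goat anti-rabbit antibody (0.25 μg/mL, 1 h each, room temperature). Signal was read by electrochemiluminescence.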
For orientation: ELISA stands for enzyme-linked immunosorbent assay.
By IC50 is commonly meant the midpoint of a concentration-inhibition curve. In the case of `CC1(C)CC(Oc2ncc(-c3ccc(-c4cn[nH]c4)cc3O)nn2)CC(C)(C)N1` [Cpd 11, 5-(1H-pyrazol-4-yl)-2-{3-[(2,2,6,6-tetramethylpiperidin-4-yl)oxy]-1,2,4-triazin-6-yl}phenol], the IC50 is no more than 100 nM.

Molecule `Cn1cc(-c2ccc(-c3cnc(N4CCC(NC5COC5)C4)nn3)c(O)c2)cn1` (centres unmarked) [Cpd 313, 5-(1-methyl-1H-pyrazol-4-yl)-2-(3-{3-[(oxetan-3-yl)amino]pyrrolidin-1-yl}-1,2,4-triazin-6-yl)phenol] came in with an IC50 of 1000 to 3000 nM.

`Cc1cn(-c2ccc(-c3cnc(N[C@H]4CC(C)(C)NC(C)(C)[C@H]4F)nn3)c(O)c2)cn1` [Cpd 239, 2-{3-{[(3S,4S)-3-fluoro-2,2,6,6-tetramethylpiperidin-4-yl]amino}-1,2,4-triazin-6-yl)-5-(4-methyl-1H-imidazol-1-yl)phenol] registered an IC50 of no more than 100 nM.

Turning to `Oc1cc(-c2cn[nH]c2)ccc1-c1cnc(N2CC[C@H](NC3CCC3)C2)nn1` [Cpd 400, 2-{3-[(3S)-3-(cyclobutylamino)pyrrolidin-1-yl]-1,2,4-triazin-6-yl}-5-(1H-pyrazol-4-yl)phenol], the IC50 was no more than 100 nM.

For the molecule `CN(c1ncc(-c2ccc(-c3c[nH]nc3Cl)cc2O)nn1)C1CC(C)(C)NC(C)(C)C1` [Cpd 57, 5-(3-chloro-1H-pyrazol-4-yl)-2-{3-[methyl(2,2,6,6-tetramethylpiperidin-4-yl)amino]-1,2,4-triazin-6-yl}phenol], the IC50 is no more than 100 nM.

With `CN(C)CC1CCN(c2ncc(-c3ccc(-c4cn[nH]c4)cc3O)nn2)C1` (centres unmarked) [Cpd 410, 2-(3-{3-[(dimethylamino)methyl]pyrrolidin-1-yl}-1,2,4-triazin-6-yl)-5-(1H-pyrazol-4-yl)phenol], the IC50 is no more than 100 nM.

As to `[2H]C([2H])([2H])n1cc(-c2ccc(-c3cnc(N[C@H]4CC(C)(C)NC(C)(C)[C@H]4F)nn3)c(O)c2)cn1` [Cpd 377, 2-(3-{[(3S,4S)-3-fluoro-2,2,6,6-tetramethylpiperidin-4-yl]amino}-1,2,4-triazin-6-yl)-5-[1-(^2H3)methyl-1H-pyrazol-4-yl]phenol], the IC50 was no more than 100 nM.

The molecule `CN1CCC2(CC1)CN(c1ncc(-c3ccc(-c4cnn(C)n4)cc3O)nn1)C2` [Cpd 242, 2-[3-(7-methyl-2,7-diazaspiro[3.5]nonan-2-yl)-1,2,4-triazin-6-yl]-5-(2-methyl-2H-1,2,3-triazol-4-yl)phenol] displayed a 50% inhibitory concentration (IC50) of no more than 100 nM.

For `CC1(C)C[C@H](Nc2ncc(-c3ccc(-c4c[nH]nn4)cc3O)nn2)[C@H](F)C(C)(C)N1` [Cpd 247, 2-(3-{[(3S,4S)-3-fluoro-2,2,6,6-tetramethylpiperidin-4-yl]amino}-1,2,4-triazin-6-yl)-5-(1H-1,2,3-triazol-4-yl)phenol], the half-maximal inhibitory concentration (IC50) was no more than 100 nM.

Molecule `CN(c1ncc(-c2ccc(-n3cc(CO)cn3)cc2O)nn1)C1CC(C)(C)NC(C)(C)C1` [Cpd 161, 5-[4-(hydroxymethyl)-1H-pyrazol-1-yl]-2-{3-[methyl(2,2,6,6-tetramethylpiperidin-4-yl)amino]-1,2,4-triazin-6-yl}phenol] showed a half-maximal inhibitory concentration (IC50) of no more than 100 nM.

Molecule `CNC1CCN(c2ncc(-c3ccc(-c4cnc(C)o4)cc3O)nn2)C1` (stereo not drawn) [Cpd 350, 2-{3-[3-(methylamino)pyrrolidin-l-yl]-1,2,4-triazin-6-yl}-5-(2-methyl-1,3-oxazol-5-yl)phenol] yielded an IC50 of no more than 100 nM.

`CN(c1ncc(-c2ccc(-c3nnco3)cc2O)nn1)C1CC(C)(C)NC(C)(C)C1` [Cpd 106, 2-{3-[methyl(2,2,6,6-tetramethylpiperidin-4-yl)amino]-1,2,4-triazin-6-yl}-5-(1,3,4-oxadiazol-2-yl)phenol] yielded a half-maximal inhibitory concentration (IC50) of no more than 100 nM.

Molecule `CN(c1cnc(-c2ccc(-c3ccc4c(cnn4C)c3)cc2O)nn1)C1CC(C)(C)NC(C)(C)C1` [Cpd 342, 5-(1-methyl-1H-indazol-5-yl)-2-{6-[methyl(2,2,6,6-tetramethylpiperidin-4-yl)amino]-1,2,4-triazin-3-yl}phenol] showed an IC50 of 100 to 500 nM.

With `CC(C)N[C@H]1CCN(c2ncc(-c3ccc(-c4cn[nH]c4)cc3O)nn2)C1` [Cpd 347, 2-(3-{(3S)-3-[(propan-2-yl)amino]pyrrolidin-1-yl}-1,2,4-triazin-6-yl)-5-(1H-pyrazol-4-yl)phenol], the IC50 is no more than 100 nM.

The molecule `CN(c1ncc(-c2ccc(-c3cc4ncn(C)c4c(F)c3F)cc2O)nn1)C1CC(C)(C)NC(C)(C)C1` [Cpd 302, 5-(6,7-difluoro-1-methyl-1H-benzimidazol-5-yl)-2-{3-[methyl(2,2,6,6-tetramethylpiperidin-4-yl)amino]-1,2,4-triazin-6-yl}phenol] displayed a concentration for half-maximal inhibition (IC50) greater than 500 nM.

With `CN(c1ncc(-c2ccc(-n3ccnc3)cc2O)nn1)C1CC(C)(C)NC(C)(C)C1` [Cpd 89, 5-(1H-imidazol-1-yl)-2-{3-[methyl(2,2,6,6-tetramethylpiperidin-4-yl)amino]-1,2,4-triazin-6-yl}phenol], the IC50 was no more than 100 nM.

Take `CC1(C)CC(Nc2ncc(-c3ccc(-c4cncnn4)cc3O)nn2)CC(C)(C)N1` [Cpd 305, 2-{3-[(2,2,6,6-tetramethylpiperidin-4-yl)amino]-1,2,4-triazin-6-yl}-5-(1,2,4-triazin-6-yl)phenol]: the IC50 was no more than 100 nM.

Turning to `CN(c1ncc(-c2ccc(-c3ccc4nnnn4n3)cc2O)nn1)C1CC(C)(C)NC(C)(C)C1` [Cpd 178, 2-{3-[methyl(2,2,6,6-tetramethylpiperidin-4-yl)amino]-1,2,4-triazin-6-yl}-5-(tetrazolo[1,5-b]pyridazin-6-yl)phenol], the 50% inhibitory concentration (IC50) is no more than 100 nM.

On to `NC1C2CN(c3ncc(-c4ccc(-c5cn[nH]c5)cc4O)nn3)CC12` (centres unmarked) [Cpd 100, 2-[3-(6-amino-3-azabicyclo[3.1.0]hexan-3-yl)-1,2,4-triazin-6-yl]-5-(1H-pyrazol-4-yl)phenol], for which the IC50 is no more than 100 nM.

For `COCC(C)NC1CCN(c2ncc(-c3ccc(-c4cn[nH]c4)cc3O)nn2)C1` (centres unmarked) [Cpd 336, 2-(3-{3-[(1-methoxypropan-2-yl)amino]pyrrolidin-1-yl}-1,2,4-triazin-6-yl)-5-(1H-pyrazol-4-yl)phenol], the half-inhibitory concentration (IC50) is no more than 100 nM.

The molecule `Cn1ncc2cc(-c3ccc(-c4cnc(NC5CC(C)(C)NC(C)(C)C5)nn4)c(O)c3)cnc21` [Cpd 321, 5-(1-methyl-1H-pyrazolo[3,4-b]pyridin-5-yl)-2-{3-[(2,2,6,6-tetramethylpiperidin-4-yl)amino]-1,2,4-triazin-6-yl}phenol] came in with an IC50 of no more than 100 nM.

`CN(c1ncc(-c2ccc(-c3ccncc3)cc2O)nn1)C1CC(C)(C)NC(C)(C)C1` [Cpd 8, 2-{3-[methyl(2,2,6,6-tetramethylpiperidin-4-yl)amino]-1,2,4-triazin-6-yl}-5-(pyridin-4-yl)phenol] had an IC50 of no more than 100 nM.

`CN(c1ncc(-c2ccc(-c3ccc(O)cc3)cc2O)nn1)C1CC(C)(C)NC(C)(C)C1` [Cpd 103, 4-{3-[methyl(2,2,6,6-tetramethylpiperidin-4-yl)amino]-1,2,4-triazin-6-yl}[1,1'-biphenyl]-3,4’-diol] showed a concentration for half-maximal inhibition (IC50) of no more than 100 nM.

As to `Cn1ncc2cc(-c3ccc(-c4cnc(N[C@H]5CC(C)(C)NC(C)(C)[C@H]5F)nn4)c(O)c3)cnc21` [Cpd 284], the half-inhibitory concentration (IC50) is no more than 100 nM.

For `CC1(NCC2CCN(c3ncc(-c4ccc(-c5cn[nH]c5)cc4O)nn3)C2)CCOCC1` (centres unmarked) [Cpd 391, 2-[3-(3-{[(4-methyloxan-4-yl)amino]methyl}pyrrolidin-1-yl)-1,2,4-triazin-6-yl]-5-(1H-pyrazol-4-yl)phenol], the IC50 was no more than 100 nM.

`CC(C)(C)NC1CCN(c2ncc(-c3ccc(-n4ccnc4)cc3O)nn2)C1` (stereo not drawn) [Cpd 187, 2-{3-[3-(tert-butylamino)pyrrolidin-l-yl]-1,2,4-triazin-6-yl}-5-(1H-imidazol-1-yl)phenol]: the IC50 lay in the range of 100 to 500 nM.

In turn, `CC(C)NC1CCN(c2ncc(-c3ccc(-c4cnn(C)n4)cc3O)nn2)C1` (centres unmarked) [Cpd 236, 5-(2-methyl-2H-1,2,3-triazol-4-yl)-2-(3-{3-[(propan-2-yl)amino]pyrrolidin-1-yl}-1,2,4-triazin-6-yl)phenol] had an IC50 of no more than 100 nM.

`CN(c1ncc(-c2ccc(-c3cccnc3)cc2O)nn1)C1CC(C)(C)NC(C)(C)C1` [Cpd 70, 2-{3-[methyl(2,2,6,6-tetramethylpiperidin-4-yl)amino]-1,2,4-triazin-6-yl}-5-(pyridin-3-yl)phenol] displayed a concentration for half-maximal inhibition (IC50) of 100 to 500 nM.

Take `CN1CCC2(CC1)CN(c1ncc(-c3ccc(-c4ccn(C)c(=O)c4)cc3O)nn1)C2` [Cpd 241, 4-{3-hydroxy-4-[3-(7-methyl-2,7-diazaspiro[3.5]nonan-2-yl)-1,2,4-triazin-6-yl]phenyl}-1-methylpyridin-2(1H)-one]: the 50% inhibitory concentration (IC50) is no more than 100 nM.

On to `Cc1cn(-c2ccc(-c3cnc(N(C)C4CC(C)(C)NC(C)(C)C4)nn3)c(O)c2)cn1` [Cpd 10, 5-(4-methyl-1H-imidazol-1-yl)-2-{3-[methyl(2,2,6,6-tetramethylpiperidin-4-yl)amino]-1,2,4-triazin-6-yl}phenol], for which the IC50 was no more than 100 nM.

The molecule `CC1CC(Oc2ncc(-c3ccc(-c4cn[nH]c4)cc3O)nn2)CC(C)N1` (centres unmarked) [Cpd 82, 2-{3-[(2,6-dimethylpiperidin-4-yl)oxy]-1,2,4-triazin-6-yl}-5-(1H-pyrazol-4-yl)phenol] gave a half-inhibitory concentration (IC50) of 100 to 500 nM.

With `CN(c1cnc(-c2ccc(-c3ncccn3)cc2O)nn1)C1CC(C)(C)NC(C)(C)C1` [Cpd 402, 2-{6-[methyl(2,2,6,6-tetramethylpiperidin-4-yl)amino]-1,2,4-triazin-3-yl}-5-(pyrimidin-2-yl)phenol], the IC50 was no more than 100 nM.

Regarding `CNC1CCN(c2ncc(-c3ccc(-c4ncns4)cc3O)nn2)C1` (centres unmarked) [Cpd 269, 2-{3-[3-(methylamino)pyrrolidin-1-yl]-1,2,4-triazin-6-yl}-5-(1,2,4-thiadiazol-5-yl)phenol], the IC50 lay within 100 to 500 nM.

The molecule `Oc1cc(-c2cn[nH]c2)ccc1-c1cnc(N2CCC3(CCCNC3)CC2)nn1` [Cpd 180, 2-[3-(2,9-diazaspiro[5.5]undecan-9-yl)-1,2,4-triazin-6-yl]-5-(1H-pyrazol-4-yl)phenol] yielded a half-maximal inhibitory concentration (IC50) of 1000 to 3000 nM.

For the molecule `COc1cc(-c2cn[nH]c2)cc(O)c1-c1cnc(N2CCC(NC(C)(C)C)C2)nn1` (centres unmarked) [Cpd 376, 2-{3-[3-(tert-butylamino)pyrrolidin-1-yl]-1,2,4-triazin-6-yl}-3-methoxy-5-(1H-pyrazol-4-yl)phenol], the concentration for half-maximal inhibition (IC50) was no more than 100 nM.
